Experimental data from article PMC6522510 (Nature Communications, 2019).
Where a name gives a salt, the structure may show the parent alone. Read-outs that look alike come from different tables or passages of the source.

Key:
Design in all cases: species or system AML cell lines (8); Primary HTS, single concentration about 10 uM, Cell Titer Glo viability; log10 luminescence, per cent inhibition relative to cycloheximide control
Conditions in all cases: 72 h, relative to cycloheximide control, log10 luminescence, inhibitor
CHRF288-11 = system: CHRF288-11
CMK = system: CMK
CMS = system: CMS
M07e = system: M07e
ML-2 = system: ML-2
MOLM-13 = system: MOLM-13
MV4-11 = system: MV4-11
U937 = system: U937

Compound	CHRF288-11 %inh (CHRF288-11; CHRF288-11 %inh, 10 µM) [%]	CMK %inh (CMK; CMK %inh, 10 µM) [%]	CMS %inh (CMS; CMS %inh, 10 µM) [%]	M07e %inh (M07e; M07e %inh, 10 µM) [%]	ML-2 %inh (ML-2; ML-2 %inh, 10 µM) [%]	MOLM-13 %inh (MOLM-13; MOLM-13 %inh, 10 µM) [%]	MV4-11 %inh (MV4-11; MV4-11 %inh, 10 µM) [%]	U937 %inh (U937; U937 %inh, 10 µM) [%]	CHRF288-11 %inh (CHRF288-11) [%]	CMK %inh (CMK) [%]	CMS %inh (CMS) [%]	M07e %inh (M07e) [%]	ML-2 %inh (ML-2) [%]	MOLM-13 %inh (MOLM-13) [%]	MV4-11 %inh (MV4-11) [%]	U937 %inh (U937) [%]
OC[C@H]1O[C@@H](O[C@@H]2[C@@H](CO)OC(O)(CO)[C@H]2O)[C@H](O)[C@@H](O)[C@H]1O (mixture of isomers) [SJ000285579-3, LACTULOSE]	0.1599	-4.096	-1.064	2.568	-0.1648	2.867	0.8098	-0.7505								
OC[C@H]1O[C@@H](O[C@@H]2[C@@H](CO)OC(O)(CO)[C@H]2O)[C@H](O)[C@@H](O)[C@H]1O (mixture of isomers) [SJ000285579-4, LACTULOSE]	2.769	0.6173	-0.8505	8.809	-0.9858	5.87	2.037	1.171								
NC[C@H](CC(=O)O)c1ccc(Cl)cc1 (racemic) [SJ000285686-7, BACLOFEN | (R,S)-BACLOFEN | (±)-BACLOFEN | LIORESAL]									-1.195	21.33	7.511	-0.3712	2.059	8.873	2.346	5.766
CCOC(=O)C1=C(C)NC(C)=C(C(=O)OC)C1c1cccc(Cl)c1Cl (single isomer, unassigned) [SJ000287293-6, FELODIPINE]	40.78	32.28	3.783	5.04	0.03711	23.61	5.092	12.66								
CCOC(=O)C1=C(C)NC(C)=C(C(=O)OC)C1c1cccc(Cl)c1Cl (single isomer, unassigned) [SJ000287293-7, FELODIPINE]	33.72	36.03	-2.469	7.937	2.538	16.76	12.83	12.4								
C[C@]12CC[C@@H]3c4ccc(O)cc4C[C@@H](CCCCCCCCC[S+]([O-])CCCC(F)(F)C(F)(F)F)[C@H]3[C@@H]1CC[C@@H]2O (single isomer, unassigned) [SJ000288293-3, FULVESTRANT | FULVESTRANT| FASLODEX | FASLODEX (ICI 182,780)]	4.612	-2.659	2.454	3.741	2.01	-2.461	13.25	-0.5617								
C[C@]12CC[C@@H]3c4ccc(O)cc4C[C@@H](CCCCCCCCC[S+]([O-])CCCC(F)(F)C(F)(F)F)[C@H]3[C@@H]1CC[C@@H]2O (single isomer, unassigned) [SJ000288293-4, FULVESTRANT | FULVESTRANT| FASLODEX | FASLODEX (ICI 182,780)]	-3.752	-2.475	2.909	2.696	1.626	-1.784	6.552	-1.083								
O=[N+]([O-])c1ccc(Oc2ccc(Br)cc2)c(C(O)P(=O)(O)O)c1 (single isomer, unassigned) [SJ000312207-2, RWJ-60475]	1.479	0.9236	0.5647	-2.334	0.244	9.917	4.34	1.53								
O=[N+]([O-])c1ccc(Oc2ccc(Br)cc2)c(C(O)P(=O)(O)O)c1 (single isomer, unassigned) [SJ000312207-3, RWJ-60475]	-1.978	2.859	-0.822	1.458	4.625	10.73	2.215	3.171								
Clc1ccc(C(Cn2ccnc2)OCc2ccsc2Cl)c(Cl)c1 (single isomer, unassigned) [SJ000556739-1, TIOCONAZOLE]	35.73	41.48	7.938	14.34	9.708	23.12	16.99	20.14								
Clc1ccc(C(Cn2ccnc2)OCc2ccsc2Cl)c(Cl)c1 (single isomer, unassigned) [SJ000556739-2, TIOCONAZOLE]	62.31	43.08	5.318	7.997	3.315	22.63	16.77	5.367								
CC1/C=C/C=C/C=C/C=C/C=C/C=C/C=C/C(OC2O[C@H](C)[C@@H](O)[C@H](N)[C@@H]2O)CC(O)C(C(=O)O)C(O)CC(=O)CC(O)CC(O)CC(O)CC(=O)CCCC(=O)CC(=O)OC1C(C)CC(C)C(O)CC(=O)c1ccc(N)cc1 (single isomer, unassigned) [SJ000565161-1, CANDICIDIN]	56.49	120.6	12.57	2.094	42.43	72.78	39.81	16.5								
Cc1cc(NS(=O)(=O)c2ccc(N)cc2)no1 [SJ000285603-4, SULFAMETHOXAZOLE]									6.539	-0.9998	-0.6486	0.538		-2.87	0.1304	-2.098
CC(=O)N(O)CCCCCNC(=O)CCC(=O)N(O)CCCCCNC(=O)CCC(=O)N(O)CCCCCN [SJ000285725-4, DEFEROXAMINE MESYLATE]	11.08		42.04	6.608	7.19	17.22	2.029			16.85						
C[C@H]1O[C@@H](O[C@H]2[C@@H](O)C[C@H](O[C@H]3[C@@H](O)C[C@H](O[C@H]4CC[C@@]5(C)[C@H](CC[C@@H]6[C@@H]5C[C@@H](O)[C@]5(C)[C@@H](C7=CC(=O)OC7)CC[C@]65O)C4)O[C@@H]3C)O[C@@H]2C)C[C@H](O)[C@@H]1O [SJ000285739-7, DIGOXIN]	112.6		94.04		58.17	85.14	73.33	-15.97								
Cc1cnc(C(=O)NCCc2ccc(S(=O)(=O)NC(=O)NC3CCCCC3)cc2)cn1 [SJ000287188-5, GLIPIZIDE]									-3.512	3.258	1.05	3.86		17.27	-0.3606	0.1954
C[N+]1(C)CCC(OC(=O)C(O)(c2ccccc2)C2CCCC2)C1 (centres unmarked) [SJ000287387-2, GLYCOPYRROLATE]									7.948	-4.149	-3.738	3.68		6.707	0.8412	2.372
CN(CCOc1ccc(NS(C)(=O)=O)cc1)CCc1ccc(NS(C)(=O)=O)cc1 [SJ000555707-1, DOFETILIDE]									-0.9409	10.12		3.914	3.818	10.35	4.51	5.896
